In PubChem BioAssay AID248 (DTP/NCI, 2004):
“And” between values parts separate entries of the source, which are not always exact repeats. Identical values can stand only once. Inconclusive results and toxic doses are left out. No stated cut-off is given here; in the data, active means T/C of 150% or more; inactive means T/C below 125%.

Tested on: L1210 leukemia ip in BDF1 mice, survival T/C
Assay: NCI In Vivo Anticancer Drug Screen. Data for tumor model L1210 Leukemia (intraperitoneal) in B6D2F1 (BDF1) mice
Conditions: endpoint: mean survival time, higher = longer survival
Method in brief: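 Survival endpoint. Drug-treated group vs vehicle group, expressed as T divided by C. Tumor passaged by transplantation.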

[1] = dose: 100.0 mg/kg/injection, schedule: Q01DX009 (ip), vehicle: saline
[2] = dose: 200.0 mg/kg/injection, schedule: Q01DX009 (ip), vehicle: saline
[3] = dose: 100.0 mg/kg/injection, schedule: Q01DX009 (ip), vehicle: saline with Tween-80
[4] = dose: 200.0 mg/kg/injection, schedule: Q01DX009 (ip), vehicle: saline with Tween-80
[5] = dose: 400.0 mg/kg/injection, schedule: Q01DX009 (ip), vehicle: saline with Tween-80
[6] = dose: 100.0 mg/kg/injection, schedule: Q01DX009 (ip), vehicle: Klucel (hydroxypropylcellulose) (HPC)
[7] = dose: 100.0 mg/kg/injection, schedule: Q04DX003 (ip), vehicle: Klucel (hydroxypropylcellulose) (HPC)
[8] = dose: 200.0 mg/kg/injection, schedule: Q01DX009 (ip), vehicle: Klucel (hydroxypropylcellulose) (HPC)
[9] = dose: 200.0 mg/kg/injection, schedule: Q04DX003 (ip), vehicle: Klucel (hydroxypropylcellulose) (HPC)
[10] = dose: 400.0 mg/kg/injection, schedule: Q01DX009 (ip), vehicle: Klucel (hydroxypropylcellulose) (HPC)
[11] = dose: 400.0 mg/kg/injection, schedule: Q04DX003 (ip), vehicle: Klucel (hydroxypropylcellulose) (HPC)
[12] = dose: 100.0 mg/kg/injection, schedule: Q01DX001 (ip), vehicle: saline
[13] = dose: 200.0 mg/kg/injection, schedule: Q01DX001 (ip), vehicle: saline
[14] = dose: 100.0 mg/kg/injection, schedule: Q04DX003 (ip), vehicle: saline
[15] = dose: 200.0 mg/kg/injection, schedule: Q04DX003 (ip), vehicle: saline
[16] = dose: 50.0 mg/kg/injection, schedule: Q01DX009 (ip), vehicle: saline
[17] = dose: 100.0 mg/kg/injection, schedule: Q04DX002 (ip), vehicle: Klucel (hydroxypropylcellulose) (HPC)
[18] = dose: 200.0 mg/kg/injection, schedule: Q04DX002 (ip), vehicle: Klucel (hydroxypropylcellulose) (HPC)
[19] = dose: 400.0 mg/kg/injection, schedule: Q04DX002 (ip), vehicle: Klucel (hydroxypropylcellulose) (HPC)
[20] = dose: 400.0 mg/kg/injection, schedule: Q04DX003 (ip), vehicle: saline
[21] = dose: 100.0 mg/kg/injection, schedule: Q04DX003 (ip), vehicle: saline with Tween-80
[22] = dose: 200.0 mg/kg/injection, schedule: Q04DX003 (ip), vehicle: saline with Tween-80
[23] = dose: 400.0 mg/kg/injection, schedule: Q04DX003 (ip), vehicle: saline with Tween-80

Measured: T/C

CCOc1ccn(C2CCOC2=O)c(=O)n1 (centres undefined)
inactive: [1] 100 % of control | dose: 100.0 mg/kg/injection, schedule: Q04DX003 (ip), vehicle: alcohol 104 % of control | [2] 97 % of control | dose: 200.0 mg/kg/injection, schedule: Q04DX003 (ip), vehicle: alcohol 102 % of control | dose: 400.0 mg/kg/injection, schedule: Q01DX009 (ip), vehicle: saline 100 % of control | dose: 400.0 mg/kg/injection, schedule: Q04DX003 (ip), vehicle: alcohol 102 % of control

CCC(=O)c1ccccc1NC(C)=O
inactive: [3] 97 % of control | [4] 96 % of control | [5] 101 % of control

CCOC(=O)C(Br)CCCC(Br)C(=O)OCC (centres undefined)
inactive: [3] 90 % of control | [5] 89 % of control

CSc1nc(N=[N+]=[N-])n(C)n1
inactive: dose: 100.0 mg/kg/injection, schedule: Q04DX002 (ip), vehicle: saline with Tween-80 95 % of control | dose: 200.0 mg/kg/injection, schedule: Q04DX002 (ip), vehicle: saline with Tween-80 95 % of control | dose: 400.0 mg/kg/injection, schedule: Q04DX002 (ip), vehicle: saline with Tween-80 92 % of control

FC(F)(F)S.[Hg]
inactive: dose: 5.0 mg/kg/injection, schedule: Q01DX009 (ip), vehicle: saline 86 % of control | dose: 10.0 mg/kg/injection, schedule: Q01DX009 (ip), vehicle: saline 93 % of control

N/C(=N/N=C/c1ccccn1)N[N+](=O)[O-]
inactive: dose: 12.5 mg/kg/injection, schedule: Q01DX009 (ip), vehicle: saline with Tween-80 105 % of control | dose: 12.5 mg/kg/injection, schedule: Q04DX003 (ip), vehicle: saline with Tween-80 119 % of control | dose: 25.0 mg/kg/injection, schedule: Q01DX009 (ip), vehicle: saline with Tween-80 101 % of control | dose: 25.0 mg/kg/injection, schedule: Q04DX003 (ip), vehicle: saline with Tween-80 105 % of control | dose: 50.0 mg/kg/injection, schedule: Q04DX003 (ip), vehicle: saline with Tween-80 114 % of control

COc1ccc(CSC(=S)NNc2ccccc2)cc1
inactive: [6] 96 % of control | [7] 98 % of control | [8] 86 % of control | [9] 93 % of control | [10] 87 % of control | [11] 90 % of control

Cc1ccc(NC(=S)N2CCOCC2)cc1C
inactive: [6] 94 % of control | [8] 100 % of control | [10] 94 % of control

CC1(C)CN1P(=O)(Oc1ccccc1)N1CC1(C)C (centres undefined)
inactive: dose: 88.0 mg/kg/injection, schedule: Q01DX001 (ip), vehicle: carboxymethylcellulose (CMC) 111 % of control

O=C(O)/C(=C\CCCCC/C=C(\CCO)C(=O)O)CCO
inactive: [6] 100 % of control | [7] 98 % of control | [8] 96 % of control | [9] 100 % of control | [10] 99 % of control | [11] 91 % of control

CCN(CC)CCC(=O)OC
inactive: dose: 50.0 mg/kg/injection, schedule: Q01DX001 (ip), vehicle: saline 97 % of control | [12] 100 % of control | [13] 100 % of control | dose: 400.0 mg/kg/injection, schedule: Q01DX001 (ip), vehicle: saline 97 % of control

NOCc1csc(Nc2ccccc2)n1
inactive: [14] 100 % of control | [15] 88 % of control

O=[N+]([O-])c1cc(Cl)ccc1N1CCCCC1
inactive: [3] 97 % of control | [4] 98 % of control | [5] 106 % of control

CCOCCc1ccncc1
inactive: [16] 101 % of control | [1] 94 % of control | [2] 90 % of control

NC(=O)c1cn[nH]c1N
inactive: dose: 100.0 mg/kg/injection, schedule: Q01DX001 (ip), vehicle: Klucel (hydroxypropylcellulose) (HPC) 96 % of control | [6] 95 % of control and 87 % of control and 93 % of control | [17] 100 % of control and 102 % of control | [7] 106 % of control and 93 % of control | dose: 200.0 mg/kg/injection, schedule: Q01DX001 (ip), vehicle: Klucel (hydroxypropylcellulose) (HPC) 104 % of control | [8] 93 % of control and 95 % of control | [18] 96 % of control and 120 % of control | [9] 100 % of control and 91 % of control | dose: 400.0 mg/kg/injection, schedule: Q01DX001 (ip), vehicle: Klucel (hydroxypropylcellulose) (HPC) 96 % of control | [10] 97 % of control and 123 % of control and 93 % of control | [19] 100 % of control and 102 % of control | [11] 87 % of control and 93 % of control

CC(C)NCC1CCCO1 (centres undefined)
inactive: [14] 94 % of control | [15] 94 % of control | [20] 97 % of control

Cc1ccc(Cl)cc1N1C(=O)CC(Sc2ccccc2N)C1=O (centres undefined)
inactive: [6] 90 % of control | [7] 90 % of control | [8] 90 % of control | [9] 95 % of control | [10] 90 % of control | [11] 90 % of control

Nc1ncc(CNc2ccc(C(=O)O)cc2)c(N)n1
inactive: [12] 103 % of control | [13] 103 % of control

CCOC(=O)CC1NCCc2c1[nH]c1ccccc21 (centres undefined)
inactive: dose: 6.25 mg/kg/injection, schedule: Q01DX001 (ip), vehicle: saline sonified 93 % of control | dose: 12.5 mg/kg/injection, schedule: Q01DX001 (ip), vehicle: saline sonified 98 % of control | dose: 25.0 mg/kg/injection, schedule: Q01DX001 (ip), vehicle: saline sonified 97 % of control

NC(=O)/C=C/c1cccnc1
inactive: [14] 91 % of control | [15] 98 % of control | [20] 96 % of control

O=C(O)c1cc([N+](=O)[O-])c(C(=O)O)c([N+](=O)[O-])c1
inactive: dose: 75.0 mg/kg/injection, schedule: Q01DX001 (ip), vehicle: other 94 % of control | dose: 150.0 mg/kg/injection, schedule: Q01DX001 (ip), vehicle: other 95 % of control | dose: 300.0 mg/kg/injection, schedule: Q01DX001 (ip), vehicle: other 96 % of control

Cc1ccc(Cl)cc1NS(=O)(=O)c1ccc2ccccc2c1
inactive: [3] 106 % of control | [21] 96 % of control | [4] 96 % of control | [22] 104 % of control | [5] 112 % of control | [23] 91 % of control

Cn1cnc([N+](=O)[O-])c1SCC(=O)O
inactive: [14] 102 % of control | [15] 102 % of control | [20] 101 % of control

O=C(c1ccc(Br)cc1)C1SC2(C(=O)c3ccc(Br)cc3)SC(C(=O)c3ccc(Br)cc3)C(C(=O)c3ccc(Br)cc3)SC2(C(=O)c2ccc(Br)cc2)SC1C(=O)c1ccc(Br)cc1 (centres undefined)
inactive: dose: 75.0 mg/kg/injection, schedule: Q01DX001 (ip), vehicle: saline 100 % of control | dose: 150.0 mg/kg/injection, schedule: Q01DX001 (ip), vehicle: saline 94 % of control | dose: 300.0 mg/kg/injection, schedule: Q01DX001 (ip), vehicle: saline 94 % of control

CNC(=O)Oc1ccc(C=Nc2cccc(Cl)c2)cc1
inactive: [17] 98 % of control | [18] 98 % of control | [19] 98 % of control

Cc1ccc(NC(=O)OCCSC(=O)COc2ccc(Cl)cc2Cl)cc1
inactive: [3] 93 % of control | [4] 98 % of control | [5] 104 % of control

C[N+](C)(C)CCCC[N+](C)(C)C
inactive: [16] 110 % of control | [1] 100 % of control and 106 % of control | [14] 102 % of control | [2] 98 % of control and 111 % of control | [15] 100 % of control

CC(=O)OC1=CCCCC1c1ccccc1 (centres undefined)
inactive: [3] 103 % of control | [21] 98 % of control | [4] 111 % of control | [22] 98 % of control | [5] 103 % of control | [23] 109 % of control

[O-][N+](=Nc1ccc(Br)cc1)c1ccc(Br)cc1
inactive: [17] 95 % of control | [18] 100 % of control | [19] 89 % of control

CC(O)C#CC#CC(C)O (centres undefined)
inactive: dose: 12.5 mg/kg/injection, schedule: Q01DX009 (ip), vehicle: saline 103 % of control | dose: 12.5 mg/kg/injection, schedule: Q04DX002 (ip), vehicle: saline 113 % of control | dose: 25.0 mg/kg/injection, schedule: Q01DX009 (ip), vehicle: saline 109 % of control | dose: 25.0 mg/kg/injection, schedule: Q04DX002 (ip), vehicle: saline 109 % of control | [16] 101 % of control | dose: 50.0 mg/kg/injection, schedule: Q04DX002 (ip), vehicle: saline 94 % of control
